Assay results from ChEMBL document CHEMBL1201862, “PubChem BioAssay data set” (2004).
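Dose response: 5 concentrations. Exposure: 48 h. Format: 96-well plates. Endpoint: linear interpolation; highest concentration if not reached. The concentration for 50% growth inhibition is given as GI50.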 The source made the active and inactive calls. Cut-off read from the data, not from the text of the source: active = GI50 up to about 1.1 µM and inactive = higher.

Key:
Test in all cases: NCI tumour cell line growth inhibition, 48 h
UO-31 = system: UO-31
HL-60 = system: HL-60
K562 = system: K562
Hs-578T = system: Hs-578T
HCT-116 = system: HCT-116
M14 = system: M14
RXF 393 = system: RXF 393
OVCAR-5 = system: OVCAR-5
NCI-H460 = system: NCI-H460
EKVX = system: EKVX
MDA-N = system: MDA-N
UACC-257 = system: UACC-257
HOP-62 = system: HOP-62
OVCAR-3 = system: OVCAR-3
MDA-MB-231 = system: MDA-MB-231
CAKI-1 = system: CAKI-1
LOX IMVI = system: LOX IMVI
SK-MEL-28 = system: SK-MEL-28
HCC 2998 = system: HCC 2998
SNB-75 = system: SNB-75

Measured: GI50

CCCCCc1nnc(NS(=O)(=O)c2ccc(NC(=O)OCC(C)C)cc2)s1
inactive: UO-31 33.4 µM | HL-60 31.2 µM | K562 25.2 µM | Hs-578T 51.2 µM | HCT-116 26.2 µM | M14 41.9 µM | RXF 393 74.8 µM | OVCAR-5 54.7 µM | NCI-H460 31 µM | EKVX 33.3 µM | MDA-N 32.3 µM | UACC-257 79.6 µM | HOP-62 44.5 µM | OVCAR-3 30.3 µM | MDA-MB-231 36.2 µM | CAKI-1 36.2 µM | LOX IMVI 37.2 µM | SK-MEL-28 41.8 µM

COc1ccc(/C=C2\CCC(C)c3c2nc(N)c(C#N)c3-c2ccc(OC)c(OC)c2)cc1OC (stereo unspecified)
inactive: UO-31 3.16 µM | HL-60 5.08 µM | K562 12 µM | Hs-578T 9.16 µM | HCT-116 8.81 µM | M14 32.3 µM | RXF 393 4.01 µM | OVCAR-5 36.9 µM | EKVX 1.36 µM | MDA-N 33.4 µM | UACC-257 1.96 µM | HOP-62 2.05 µM | OVCAR-3 9.29 µM | MDA-MB-231 9.89 µM | CAKI-1 58.5 µM | LOX IMVI 66.4 µM | SK-MEL-28 45.8 µM

Cc1cccc2oc3c(CC(=O)O)cccc3c(=O)c12
inactive: UO-31 > 100 µM | HL-60 > 100 µM | HCC 2998 20.5 µM | K562 > 100 µM | Hs-578T > 100 µM | HCT-116 > 100 µM | M14 > 100 µM | NCI-H460 > 100 µM | EKVX > 100 µM | MDA-N > 100 µM | UACC-257 > 100 µM | HOP-62 > 100 µM | OVCAR-3 > 100 µM | MDA-MB-231 > 100 µM | CAKI-1 > 100 µM | LOX IMVI > 100 µM | SK-MEL-28 > 100 µM

O=C(Nc1ccc2ccccc2c1)Nn1cnnc1
inactive: UO-31 80.4 µM | HL-60 > 100 µM | HCC 2998 > 100 µM | K562 > 100 µM | Hs-578T > 100 µM | HCT-116 > 100 µM | M14 > 100 µM | OVCAR-5 > 100 µM | NCI-H460 > 100 µM | EKVX > 100 µM | MDA-N > 100 µM | UACC-257 > 100 µM | HOP-62 > 100 µM | OVCAR-3 > 100 µM | MDA-MB-231 > 100 µM | CAKI-1 > 100 µM | LOX IMVI > 100 µM | SNB-75 > 100 µM | SK-MEL-28 > 100 µM
